Results taken from patent US20250082603A1, “OPHTHALMIC COMPOSITION CONTAINING RECOFLAVONE FOR THE TREATMENT OF DRY EYE DISEASE AND METHOD FOR PREPARING THE SAME” (GL PHARMTECH CORP., priority 2021, published 2025).
Like-named read-outs stand apart in the source and are kept apart here. Blank lines part the entries; values can stand above or below the compound they belong to.

How the values were obtained:
[1] = Dissolved state of recoflavone in sodium hydroxide aqueous solution; format: physicochemical
Experimental: When recoflavone is not dissolved in purified water, in (S1) step, sodium hydroxide as an alkalizing agent is added in an amount of not less than 1.05 which is the ratio of molar concentration to that of recoflavone. Here, the ratio of molar concentration is expressed as a value by dividing the molar concentration of sodium hydroxide by the molar concentration of recoflavone contained in the ophthalmic composition.
Specifically, (S1) step is a process where sodium hydroxide is added to purified water to prepare an aqueous solution having a molar concentration of not more than 0.16 M or not less than 0.19 M, and then recoflavone is added. Recoflavone can be dissolved transparently through the above process.
The molar concentration of sodium hydroxide is calculated in the above dissolving process not in the final volume of the manufacturing process. […] Therefore an ophthalmic composition cannot be prepared efficiently. The corresponding contents will be described in details with reference to Tables 1, 2 and FIG. 9 below.

[2] = Drug distribution in each tissue of eye after 3% eye drop administered to rabbit eyes; format: in vivo; conditions: data not shown
Source text: (§1) It has a property with low solubility at low pH. As the pH increases, it is ionized and its solubility increases.

[3] = Cell permeability of dissolved recoflavone; format: in vitro ADME; conditions: high degree of ionization
Source text: as §1

[4] = test system: human keratoconjunctival epithelial cells; conditions: cited from earlier work
[5] = cited from earlier work
[6] = Solubility of recoflavone in water and its pH dependence; format: physicochemical
Source text: as §1
In general, an ophthalmic composition is preferably prepared in a transparent solution state in consideration of the feeling of use in eyes and the efficient absorption of the drug. […] Therefore, if recoflavone is not dissolved in purified water for an ophthalmic composition, a transparent solution may be prepared through (S1) step.

[7] = human keratoconjunctival epithelial cells

Dissolved state ([1]; molar concentration ratio 0.93, NaOH 0.196 M, recoflavone monohydrate 0.211 M): Not transparent
Dissolved state ([1]; molar concentration ratio 0.97, NaOH 0.196 M, recoflavone monohydrate 0.201 M): Not transparent
Dissolved state ([1]; molar concentration ratio 1.00, NaOH 0.196 M, recoflavone monohydrate 0.196 M): Not transparent
Dissolved state ([1]; molar concentration ratio 1.05, NaOH 0.194 M, recoflavone monohydrate 0.184 M): Transparent
Dissolved state ([1]; molar concentration ratio 1.06, NaOH 0.203 M, recoflavone monohydrate 0.192 M): Transparent
Structure (SMILES): COc1ccc(-c2cc(=O)c3c(OC)cc(OCC(=O)O)cc3o2)cc1OC [recoflavone monohydrate]

Dissolved state of recoflavone ([1]; NaOH aqueous solution out of the range of not more than 0.16 M or not less than 0.19 M, stirring for several hours): not dissolved transparently
Dissolved state of recoflavone ([1]; final volume 40 L, recoflavone 5% (w/v), NaOH 0.196 M, purified water 28,000 mL, ratio 1.05~1.06): Transparent
Dissolved state of recoflavone ([1]; final volume 70 L, recoflavone 5% (w/v), NaOH 0.196 M, purified water 49,000 mL, ratio 1.05~1.06): Transparent
Dissolved state of recoflavone ([1]; final volume 100 mL, recoflavone 3% (w/v), NaOH 0.086 M, purified water 90 mL, ratio 1.05): Transparent
Dissolved state of recoflavone ([1]; final volume 100 mL, recoflavone 3% (w/v), NaOH 0.097 M, purified water 80 mL): Transparent
Dissolved state of recoflavone ([1]; final volume 100 mL, recoflavone 3% (w/v), NaOH 0.111 M, purified water 70 mL): Transparent
Dissolved state of recoflavone ([1]; final volume 100 mL, recoflavone 5% (w/v), NaOH 0.137 M, purified water 100 mL, ratio 1.05): Transparent
Dissolved state of recoflavone ([1]; final volume 100 mL, recoflavone 5% (w/v), NaOH 0.152 M, purified water 90 mL): Transparent
Dissolved state of recoflavone ([1]; final volume 100 mL, recoflavone 5% (w/v), NaOH 0.196 M, purified water 70 mL): Transparent
Dissolved state of recoflavone ([1]; final volume 100 mL, recoflavone 5% (w/v), NaOH 0.392 M, purified water 70 mL): Transparent
Dissolved state of recoflavone ([1]; final volume 100 mL, recoflavone 6% (w/v), NaOH 0.204 M, purified water 80 mL): Transparent
Dissolved state of recoflavone ([1]; final volume 100 mL, recoflavone 6% (w/v), NaOH 0.233 M, purified water 70 mL): Transparent
Dissolved state of recoflavone ([1]; final volume 100 mL, recoflavone 6% (w/v), NaOH 0.466 M, purified water 70 mL): Transparent
Dissolved state of recoflavone ([1]; final volume 100 mL, recoflavone 7% (w/v), NaOH 0.195 M, purified water 100 mL, ratio 1.05): Transparent
Dissolved state of recoflavone ([1]; final volume 100 mL, recoflavone 7% (w/v), NaOH 0.279 M, purified water 70 mL): Transparent
Dissolved state of recoflavone ([1]; final volume 100 mL, recoflavone 7% (w/v), NaOH 0.558 M, purified water 70 mL): Transparent
cell permeability [3]: poor
solubility at low pH ([6]; low pH): low
solubility in water ([6]; water): practically insoluble
Structure (SMILES): COc1ccc(-c2cc(=O)c3c(OC)cc(OCC(=O)O)cc3o2)cc1OC [recoflavone, 2-((2-(3,4-dimethoxyphenyl)-5-methoxy-4-oxo-4H-chromen-7-yl)oxy) acetic acid]
drug concentration in the cornea [2]: high immediately after the administration, but it was rapidly decreased over time
drug distribution in each tissue of eye with time [2]: rarely distributed in the tissues located inside the eye and mainly distributed in the surrounding tissues outside of the eye
thickness of the mucin layer ([4]; 100 μM solution): significantly increased
MUC1, MUC4, MUC16 and MUC5AC by real-time PCR [4, 7]: tendency to increase significantly for four hours and then decreased rapidly
mucin proteins by Western blot analysis [4, 7]: MUC5AC only had a tendency to increase and the others did not
hygroscopicity ([5]; form of a hydrate): stable without hygroscopicity
hygroscopicity ([5]; form of an anhydride): has hygroscopicity
